Reference: patent EP0360750A2, “Novel herbicide tolerant plants” (CIBA-GEIGY AG, priority 1988, dated 1990)

Experiments:
AHAS = AHAS enzyme assay: AHAS activity remaining in the presence of herbicides or amino acids; format: biochemical, Nicotiana tabacum; conditions: for % AHAS activity remaining with Leu / % AHAS activity remaining with Ile / % AHAS activity remaining with Val: 10mM
Experimental: The weight of the material to be assayed is determined either by weighing the pellet obtained by refrigerated centrifugation of a cell suspension or by weighing callus, leaf or root tissue placed into liquid nitrogen and macerated to a fine powder. One volume (in ml) of cold homogenization buffer equal to the weight (in g) of the cell suspension pellet or equal to two times the weight (in g) of tissue is added and the mixture is passed through a French pressure cell at 15,000 psi or is ground with sand in a mortar and pestle. All subsequent steps are carried out keeping the material cold (about 4°C). The cells are disrupted at 16,000 psi, collecting the cell exudate into a container on ice. The exudate is centrifuged 5 min at 10,000 rpm to clear the cell debris. The volume of the supernate is measured and enzyme grade ammonium sulfate added to 25 % saturation (144 mg (NH₄)₂SO₄ per ml supernate). The mixture is stirred on ice for 15 min, then centrifuged for 5 min at 10,000 rpm. The pellet is discarded and the supernate adjusted to 50 % saturation with ammonium sulfate (158 mg (NH₄)₂SO₄ per ml supernate). After stirring on ice for 15 min, the pellet is collected by centrifugation at 10,000 rpm for 5 min. The obtained pellet is dissolved in 1-2 ml of column buffer. The extract is desalted by application to a Sephadex G50 column equilibrated with column buffer. The sample is eluted with column buffer, collecting approximately 2 ml of sample for each ml of sample applied to the column.
Homogenization buffer and column buffer are chosen depending on the source of the AHAS to be assayed: Tobacco homogenization buffer consists of: 50 mM NaH₂PO₄ buffer pH 7.0, 0.5 mM EDTA pH 7.0, 0.5 mM MgCl₂, 1 mM sodium pyruvate pH 7.0, 10 µM FAD, 1 mM PMSF, 10 % glycerol. Maize homogenization buffer consists of: 50 mM Tris pH 7.5, 1 mM EDTA pH 7.5, 5 mM MgCl₂, 20 mM sodium pyruvate pH 7.0, 10 µM FAD, 1 mM PMSF, 1 mM DTT, 1 mM TPP, 10 % glycerol. Tobacco column buffer consists of: 50 mM NaH₂PO₄ buffer pH 7.0, 0.1 mM EDTA, 0.5 mM MgCl₂, 10 µM FAD, 1 mM PMSF, 10 % glycerol. Maize column buffer consists of: 50 mM Tris pH 7.5, 5 mM MgCl₂, 10 µM FAD, 0.1 mM EDTA, 1 mM PMSF, 1 mM DTT, 10 % glycerol.
5-50 µl of an extract prepared according to EXAMPLE 30 are dissolved in a total volume of 0.5 ml of reaction mixture (see below). The mixture is incubated for 30 min at 37°C. The reaction is stopped by the addition of 50 µl of 6 N H₂SO₄. The mixture is incubated for 15 min at 60°C, then treated with 625 µl of a-naphthol reagent (500 µl 5 % a-naphthol in 2.5 M NaOH and 125 µl 25 mg/ml creatine) and incubated another 15 min at 60°C. If a precipitate has formed, this is spun out, and the absorbance measured at 520 nm. The amount of acetoin formed is calculated from a standard curve developed using 0.4 µg to 10 µg acetoin. The specific activity is expressed as pKat acetoin per mg protein.
1-20 µl of a sample are placed in a ELISA plate well with a total volume of 0.15 ml of reaction mixture. The mixture is reacted for 30 min at 37°C. The reaction is stopped by the addition of 50 µl of 2.4 M H₂SO₄ containing 1 % creatine. The mixture is incubated for 30 min at 60°C. Any precipitate present is separated by centri fugation. 150 µl of the assay mixture are transferred to a new ELISA plate, treated with 100 µl 10 % a-naphthol in 5M NaOH and incubated another 20 min at 60°C. The absorbance is measured at 520 nm, and the specific activity expressed as under a).
Ten point inhibition curves are generated by determining AHAS activity in the presence of sulfonylurea, imidazolinone and triazolopyrimidine herbicides. The sulfonylurea and triazolopyrimidine herbicides are included in the reaction mixture to give a range of final concentrations of the inhibitors between 1 nM and 10,000 nM. The imidazolinone herbicides are included in the concentration ranges of 10 nM to 100,000 nM. […]

[1] = tested on: transgenic tobacco plants; assay: Leaf disc herbicide tolerance test of transgenic tobacco plants; format: cell-based, cv. Havana 38; conditions: after 40 days
Experimental: After 3-6 weeks of growth in light, the cultured tissue pieces are evaluated for their ability to form green shoots in the presence of the inhibitor. In analogy, sections from stems, petioles, roots, cotyledons, and hypocotyls are used. The herbicide tolerance of the transgenic plants obtained according to EXAMPLE 23 and 24 using CGA1402 are essentially determined as described in EXAMPLE 11a. Leaf discs are cut from different transgenic plants, weighed and then placed, lower side up, onto solidified MSBN medium containing 0, 10, 30, 100 and 300 ppb of SU872. The culture plates are incubated in the light at 25-28°C. […] Discs are inspected visually and evaluated for shoot and/or callus formation.

Structure (SMILES): COC(=O)c1ccccc1S(=O)(=O)NC(=O)Nc1nc(OC(F)F)cc(OC(F)F)n1 [SU872, 2-methoxycarbonyl-N-[(4,6-bis{difluoromethoxy}-pyrimidin-2-yl)-aminocarbonyl]benzenesulfonamide]
- % AHAS activity remaining with SU872 (AHAS; 0.21µM, strain S3 (Table 2)): 17%
- % AHAS activity remaining with SU872 (AHAS; 0.21µM, strain Su 6 (Table 2)): 27%
- % AHAS activity remaining with SU872 (AHAS; 0.21µM, strain Su 8 (Table 2)): 32%
- % AHAS activity remaining with SU872 (AHAS; 0.21µM, strain Su 10 (Table 2)): 39%
- % AHAS activity remaining with SU872 (AHAS; 0.21µM, strain Su 20 (Table 2)): 18%
- % AHAS activity remaining with SU872 (AHAS; 0.21µM, strain Su 25 (Table 2)): 20%
- % AHAS activity remaining with SU872 (AHAS; 0.21µM, strain Su 27 (Table 2)): 36%
- % AHAS activity remaining with SU872 (AHAS; 0.21µM, strain Su 41 (Table 2)): 15%
- % AHAS activity remaining with SU872 (AHAS; 10.6µM, strain S3 (Table 2)): 14%
- % AHAS activity remaining with SU872 (AHAS; 10.6µM, strain Su 6 (Table 2)): 12%
- % AHAS activity remaining with SU872 (AHAS; 10.6µM, strain Su 8 (Table 2)): 12%
- % AHAS activity remaining with SU872 (AHAS; 10.6µM, strain Su 10 (Table 2)): 15%
- % AHAS activity remaining with SU872 (AHAS; 10.6µM, strain Su 20 (Table 2)): 17%
- % AHAS activity remaining with SU872 (AHAS; 10.6µM, strain Su 25 (Table 2)): 18%
- % AHAS activity remaining with SU872 (AHAS; 10.6µM, strain Su 27 (Table 2)): 20%
- % AHAS activity remaining with SU872 (AHAS; 10.6µM, strain Su 41 (Table 2)): 12%
- Mean mg fresh weight per disc ± standard deviation (n=7) ([1]; 10 ppb SU872, plant A3 (transformed with CGA1402, 35S/wild-type Arabidopsis AHAS)): 2151 ± 995 mg
- Mean mg fresh weight per disc ± standard deviation (n=7) ([1]; 10 ppb SU872, plant A4 (transformed with CGA1402, 35S/wild-type Arabidopsis AHAS)): 2847 ± 548 mg
- Mean mg fresh weight per disc ± standard deviation (n=7) ([1]; 10 ppb SU872, plant D2 (genomic clone of AHAS from chlorsulfuron tolerant mutant GH-50), discs bleached, not enlarged, no callus): 70 ± 14 mg
- Mean mg fresh weight per disc ± standard deviation (n=7) ([1]; 10 ppb SU872, plant type E (wild-type tobacco, cv. Havana 38), discs bleached, not enlarged, no callus): 87 ± 19 mg
- Mean mg fresh weight per disc ± standard deviation (n=7) ([1]; 30 ppb SU872, plant A3): 180 ± 98 mg
- Mean mg fresh weight per disc ± standard deviation (n=7) ([1]; 30 ppb SU872, plant A4): 333 ± 174 mg
- Mean mg fresh weight per disc ± standard deviation (n=7) ([1]; 100 ppb SU872, plant A3): 33 ± 29 mg
- Mean mg fresh weight per disc ± standard deviation (n=7) ([1]; 100 ppb SU872, plant A4): 19 ± 15 mg

Structure (SMILES): CC(C)C[C@H](N)C(=O)O [Leu, leucine]
- % AHAS activity remaining with Leu (AHAS; strain S3 (Table 2)): 38%
- % AHAS activity remaining with Leu (AHAS; strain Su 6 (Table 2)): 58%
- % AHAS activity remaining with Leu (AHAS; strain Su 8 (Table 2)): 61%
- % AHAS activity remaining with Leu (AHAS; strain Su 10 (Table 2)): 62%
- % AHAS activity remaining with Leu (AHAS; strain Su 20 (Table 2)): 53%
- % AHAS activity remaining with Leu (AHAS; strain Su 25 (Table 2)): 84%
- % AHAS activity remaining with Leu (AHAS; strain Su 27 (Table 2)): 81%
- % AHAS activity remaining with Leu (AHAS; strain Su 41 (Table 2)): 71%

Structure (SMILES): CC[C@H](C)[C@H](N)C(=O)O [Ile, isoleucine]
- % AHAS activity remaining with Ile (AHAS; strain S3 (Table 2)): 80%
- % AHAS activity remaining with Ile (AHAS; strain Su 6 (Table 2)): 66%
- % AHAS activity remaining with Ile (AHAS; strain Su 8 (Table 2)): 95%
- % AHAS activity remaining with Ile (AHAS; strain Su 10 (Table 2)): 102%
- % AHAS activity remaining with Ile (AHAS; strain Su 20 (Table 2)): 58%
- % AHAS activity remaining with Ile (AHAS; strain Su 25 (Table 2)): 100%
- % AHAS activity remaining with Ile (AHAS; strain Su 27 (Table 2)): 92%
- % AHAS activity remaining with Ile (AHAS; strain Su 41 (Table 2)): 97%

Structure (SMILES): CC(C)[C@H](N)C(=O)O [Val, valine]
- % AHAS activity remaining with Val (AHAS; strain S3 (Table 2)): 69%
- % AHAS activity remaining with Val (AHAS; strain Su 6 (Table 2)): 82%
- % AHAS activity remaining with Val (AHAS; strain Su 8 (Table 2)): 81%
- % AHAS activity remaining with Val (AHAS; strain Su 10 (Table 2)): 48%
- % AHAS activity remaining with Val (AHAS; strain Su 20 (Table 2)): 75%
- % AHAS activity remaining with Val (AHAS; strain Su 25 (Table 2)): 86%
- % AHAS activity remaining with Val (AHAS; strain Su 27 (Table 2)): 91%
- % AHAS activity remaining with Val (AHAS; strain Su 41 (Table 2)): 83%

Structure (SMILES): COCCOc1ccccc1S(=O)(=O)NC(=O)Nc1nc(OC)nc(OC)n1 [SU464, 2-(2-methoxyethoxy)-N-[(4,6-dimethoxy-1,3,5-triazin-2-yl)-aminocarbonyl]benzenesulfonamide]
- % AHAS activity remaining with SU464 (AHAS; 0.21µM, strain S3 (Table 2)): 44%
- % AHAS activity remaining with SU464 (AHAS; 0.21µM, strain Su 6 (Table 2)): 36%
- % AHAS activity remaining with SU464 (AHAS; 0.21µM, strain Su 8 (Table 2)): 38%
- % AHAS activity remaining with SU464 (AHAS; 0.21µM, strain Su 10 (Table 2)): 37%
- % AHAS activity remaining with SU464 (AHAS; 0.21µM, strain Su 20 (Table 2)): 32%
- % AHAS activity remaining with SU464 (AHAS; 0.21µM, strain Su 25 (Table 2)): 32%
- % AHAS activity remaining with SU464 (AHAS; 0.21µM, strain Su 27 (Table 2)): 39%
- % AHAS activity remaining with SU464 (AHAS; 0.21µM, strain Su 41 (Table 2)): 32%
- % AHAS activity remaining with SU464 (AHAS; 10.6µM, strain S3 (Table 2)): 24%
- % AHAS activity remaining with SU464 (AHAS; 10.6µM, strain Su 6 (Table 2)): 15%
- % AHAS activity remaining with SU464 (AHAS; 10.6µM, strain Su 8 (Table 2)): 16%
- % AHAS activity remaining with SU464 (AHAS; 10.6µM, strain Su 10 (Table 2)): 20%
- % AHAS activity remaining with SU464 (AHAS; 10.6µM, strain Su 20 (Table 2)): 21%
- % AHAS activity remaining with SU464 (AHAS; 10.6µM, strain Su 25 (Table 2)): 18%
- % AHAS activity remaining with SU464 (AHAS; 10.6µM, strain Su 27 (Table 2)): 19%
- % AHAS activity remaining with SU464 (AHAS; 10.6µM, strain Su 41 (Table 2)): 21%
